Measurements as given in patent publication US20050222253A1, “Anti-cancer nitro- and thia-fatty acids” (priority 1999, published 2005).
“Also recorded” adds a separate entry of the source.

Experiments:
[1] = biological target: T1, 15-LO (Glycine max, UniProt P08170); test: Effect on 15-LO catalysed oxidation of arachidonic acid; assay type: biochemical, soybean; details: preliminary experiment, result in words
T1 construct: purchased Sigma Chemical Company
T1 sequence (P08170 1-839): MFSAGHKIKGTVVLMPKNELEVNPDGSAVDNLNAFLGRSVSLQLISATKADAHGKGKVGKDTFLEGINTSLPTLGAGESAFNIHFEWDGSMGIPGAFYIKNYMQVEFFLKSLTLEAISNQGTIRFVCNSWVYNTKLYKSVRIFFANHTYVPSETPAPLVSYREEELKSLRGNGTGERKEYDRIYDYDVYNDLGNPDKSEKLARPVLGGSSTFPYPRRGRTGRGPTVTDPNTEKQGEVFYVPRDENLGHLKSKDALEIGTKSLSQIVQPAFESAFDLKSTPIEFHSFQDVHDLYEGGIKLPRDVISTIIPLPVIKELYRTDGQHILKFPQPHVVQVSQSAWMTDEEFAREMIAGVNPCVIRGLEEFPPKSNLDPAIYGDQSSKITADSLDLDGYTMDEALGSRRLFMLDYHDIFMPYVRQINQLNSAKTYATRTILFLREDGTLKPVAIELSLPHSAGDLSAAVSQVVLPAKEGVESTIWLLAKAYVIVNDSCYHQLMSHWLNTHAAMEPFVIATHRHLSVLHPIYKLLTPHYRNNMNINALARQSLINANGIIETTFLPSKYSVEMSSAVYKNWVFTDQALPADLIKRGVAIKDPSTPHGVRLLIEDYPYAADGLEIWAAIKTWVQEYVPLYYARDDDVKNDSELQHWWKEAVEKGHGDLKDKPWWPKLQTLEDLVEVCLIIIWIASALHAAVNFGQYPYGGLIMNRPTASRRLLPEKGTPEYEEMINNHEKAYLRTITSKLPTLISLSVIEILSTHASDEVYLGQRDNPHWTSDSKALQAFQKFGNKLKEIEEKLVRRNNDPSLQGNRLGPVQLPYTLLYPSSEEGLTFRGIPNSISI

[2] = biological target: T2, 12-LO (Sus scrofa, UniProt P16469); test: Effect on 12-LO catalysed oxidation of arachidonic acid; assay type: biochemical, porcine; details: preliminary experiment, result in words
T2 construct: purchased Cayman Chemical Company
T2 sequence (P16469 1-663): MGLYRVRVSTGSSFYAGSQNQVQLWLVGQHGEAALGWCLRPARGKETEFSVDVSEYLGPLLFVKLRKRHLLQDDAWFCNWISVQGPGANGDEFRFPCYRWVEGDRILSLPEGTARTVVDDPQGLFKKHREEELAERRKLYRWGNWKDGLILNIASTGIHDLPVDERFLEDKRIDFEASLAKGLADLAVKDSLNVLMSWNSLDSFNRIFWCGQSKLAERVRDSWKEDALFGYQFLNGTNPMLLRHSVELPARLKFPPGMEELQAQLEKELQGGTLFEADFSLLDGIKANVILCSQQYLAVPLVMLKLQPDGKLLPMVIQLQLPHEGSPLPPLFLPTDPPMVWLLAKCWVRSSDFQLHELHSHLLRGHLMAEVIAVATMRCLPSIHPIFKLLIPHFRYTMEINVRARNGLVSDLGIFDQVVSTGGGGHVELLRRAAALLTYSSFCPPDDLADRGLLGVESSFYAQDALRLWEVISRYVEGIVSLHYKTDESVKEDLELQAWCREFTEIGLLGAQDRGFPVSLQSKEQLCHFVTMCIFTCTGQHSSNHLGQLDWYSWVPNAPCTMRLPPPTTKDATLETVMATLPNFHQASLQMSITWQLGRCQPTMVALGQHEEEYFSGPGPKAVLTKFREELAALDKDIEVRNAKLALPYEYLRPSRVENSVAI
Method: (§1) Based on this consideration, 5-LO, 12-LO and 15-LO catalysed oxidation of the nitro compounds (4a, 4b, 6a, 6b, 8a and 8b) was investigated. Each of the nitro compounds was treated with 15-LO in pH 9.0 buffer (or 5-LO in pH 6.3 buffer and 12-LO in pH 7.4 buffer), and the formation of 15-hydroperoxy derivatives (or 5-hydroperoxy or 12-hydroperoxy derivatives) over time was monitored by LW spectroscopy at 234 nm.
A number of Lx compounds were tested for anti 5-LOX and 12-LOX activities in the human breast cancer cell line, MCF-7. […] The ability of 5-LOX and 12-LOX to produce oxidated products of 20:4n-6 with a different absorption wavelength in the presence of nitroso-PUFA was examined and is shown in the progress curves in FIG. 6. […] Within cells, activation of 5-LOX is facilitated by 5-LOX activating protein (FLAP). Thus, in intact cells, Lx7 and Lx9 may be able to activate 5-LOX at lower concentrations than those required in the purified enzyme system shown in FIG. 6. […] By being able to activate 5-LOX and suppress 12-LOX, these compounds have the desired characteristics of anti-breast cancer agents as discussed previously.
15-LO was obtained from Sigma Chemical Company, and 12-LO from Cayman Chemical Company. Arachidonic acid 1, linolenyl alcohol 57a, gamma linolenyl alcohol 5b, arachidonyl alcohol 57c and docosahexaenyl alcohol 57d were purchased from Nu-Chek Prep. Inc. Elysian, Minn., USA. Other chemicals were commercially available from Aldrich Chemical Company.

[3] = system: DU145 cells; test: DU145 tumour cell survival (MTS cell proliferation assay); assay type: cell-based, human; details: for Anti tumour effect on DU145 tumour cells: various concentrations and times (FIGS. 1, 2); for DU145 cell survival, screening test: 20 μM fatty acid, 24 hrs, MTS (FIG. 4); for DU145 cell proliferation: 24 h, MTS assay (FIG. 5A)
Method: Lx compounds were tested for activity against two androgen insensitive prostate cancer tumour cell lines, DU145(liver metastases) and PC3(brain metastases). […] Survival was measured using the MTS cell proliferation assay.
Various concentrations for varying amounts of time of Lx compounds were added to either DU145 or PC3 tumour cells in culture. Viability/death of tumour cells was measured by a standard colourimetric assay. […] It is also evident from the results (FIG. 2) that the saturated nitro compound Lx1 (19:0-NO2) is not active and neither is MP2 (β-thia 23:0), a saturated […] fatty acid. […] In a further screening test, the human prostate cell line, DU145 cells (liver metastases), was treated for 24 hrs with 20 μM Fatty Acid and cell survival was measured using the MTS cell proliferation assay. This assay uses colourimetric measurement of substrate conversion to formazan which occurs only in the presence of NADH in a metabolically active cell. There was varied anti-tumour activity amongst the different types of PUFA.
(§2) DU145 cells were treated with PUFA and incubated for 24 h (for the proliferation assay), 4 h (for the caspase assay) and for 18 h (for PARP cleavage).
(§3) Proliferation was quantitated by MTS assay. Caspases 3 and 7 were assayed by a fluorometric assay using a […] substrate. PARP cleavage was measured by Western blots using an anti PARP antibody.

[4] = biological target: 5-LO (Solanum tuberosum, UniProt P37831); test: Effect on 5-LO catalysed oxidation of arachidonic acid; assay type: biochemical; details: preliminary experiment, purified enzyme, result in words
5-LO, sequence (P37831 whole entry): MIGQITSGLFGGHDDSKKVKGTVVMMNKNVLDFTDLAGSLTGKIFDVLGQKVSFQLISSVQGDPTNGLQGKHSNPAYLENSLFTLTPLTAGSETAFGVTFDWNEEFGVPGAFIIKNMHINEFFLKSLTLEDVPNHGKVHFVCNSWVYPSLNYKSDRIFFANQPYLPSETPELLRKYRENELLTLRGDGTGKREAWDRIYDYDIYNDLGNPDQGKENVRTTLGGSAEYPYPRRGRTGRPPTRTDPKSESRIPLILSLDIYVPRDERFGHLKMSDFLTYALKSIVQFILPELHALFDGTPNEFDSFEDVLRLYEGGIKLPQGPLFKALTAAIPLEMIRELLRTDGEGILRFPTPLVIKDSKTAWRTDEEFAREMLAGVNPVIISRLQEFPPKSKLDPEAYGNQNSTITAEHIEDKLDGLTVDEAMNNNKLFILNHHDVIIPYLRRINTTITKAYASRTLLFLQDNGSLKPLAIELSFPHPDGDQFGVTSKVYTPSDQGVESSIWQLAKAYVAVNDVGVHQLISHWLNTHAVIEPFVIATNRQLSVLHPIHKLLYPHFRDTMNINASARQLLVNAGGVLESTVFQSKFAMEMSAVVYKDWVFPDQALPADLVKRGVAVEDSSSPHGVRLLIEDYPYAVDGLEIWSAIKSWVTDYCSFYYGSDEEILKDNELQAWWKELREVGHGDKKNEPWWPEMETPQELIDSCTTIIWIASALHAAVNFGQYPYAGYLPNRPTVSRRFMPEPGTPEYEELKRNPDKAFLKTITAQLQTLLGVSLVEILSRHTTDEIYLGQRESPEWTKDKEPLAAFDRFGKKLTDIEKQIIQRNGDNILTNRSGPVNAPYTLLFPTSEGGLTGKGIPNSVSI
Method: as §1, with “nm. […]” for “nm.”

[5] = system: MCF-7 cells; test: Killing of MCF-7 breast cancer cells in vitro; assay type: cell-based, human; details: in vitro (FIG. 7); compared with 20:4n-6 toxicity
Description: While interference with 5-LOX or 12-LOX activity individually impacts on growth rates of human breast cancer MCF-7 cells^(55,56), the simultaneous modification of the activities of both enzymes at once may cause death. […] Lx4, a nitroso-compound with the same number of carbon atoms and degree of unsaturation as Lx9 but lacking a COOH group, was ineffective (FIG. 7).

[6] = system: PARP; test: PARP cleavage by Western blot in DU145 cells; assay type: cell-based, human; details: 18 h, anti PARP antibody (FIG. 5C)
Method: as §2, §3

[7] = system: Caspases 3 and 7; test: Caspase 3 and 7 fluorometric assay in DU145 cells; assay type: cell-based, human; details: for Activation of caspases: DU145 cells, 4 h (FIG. 5B); for Induction of apoptosis in DU145 cells: concluded from caspase activation and PARP cleavage
Method: as §2, §3

## CCCCCCCCCCCCCC[S+]([O-])CCC(=O)O (stereo not drawn) [Compound 113, 3-(tetradecylsulfinyl) propionic acid]
other
  melting point: 166 to 167 °C

## CCCCCCCCCCCCCCCCCC[N+](=O)[O-] [Lx1, 1-Nitrooctadecane]
[1]
  Effect on 15-LO catalysed oxidation of AA: Nil
[2]
  Effect on 12-LO catalysed oxidation of AA: Nil
[3]
  Anti tumour effect on DU145 tumour cells: not active
[4]
  Effect on 5-LO catalysed oxidation of AA: Nil

## CC/C=C\C/C=C\C/C=C\CCCCCCCC[N+](=O)[O-] [Lx2, (z,z,z)-1-Nitro-9,12,15-octadecatriene]
[1]
  Effect on 15-LO catalysed oxidation of AA: Nil

## CCCCC/C=C\C/C=C\C/C=C\CCCCC[N+](=O)[O-] [Lx3, (z,z,z)-1-Nitro-6,9,12-octadecatriene]
[1]
  Effect on 15-LO catalysed oxidation of AA: Nil

## CCCCC/C=C\C/C=C\C/C=C\C/C=C\CCCC[N+](=O)[O-] [Lx4, (all-z)-1-Nitro-5,8,11,14-eicosatetraene]
[5]
  Killing of MCF-7 tumour cells: ineffective
[1]
  Effect on 15-LO catalysed oxidation of AA: Nil
[2]
  Effect on 12-LO catalysed oxidation of AA: Nil
[4]
  Effect on 5-LO catalysed oxidation of AA: Nil

## CC/C=C\C/C=C\C/C=C\C/C=C\C/C=C\C/C=C\CCC[N+](=O)[O-] [Lx5, (all-z)-1-Nitro-4,7,10,13,16,19-docosahexaene]
[1]
  Effect on 15-LO catalysed oxidation of AA: Nil

## CCCCCCCCCCCCCCCCCC(CCC(=O)O)[N+](=O)[O-] (stereo not drawn) [Lx6, 4-Nitrohenicosanoic acid]
[1]
  Effect on 15-LO catalysed oxidation of AA: Activatory
[1]; listed as 6a
  Effect on 15-LO catalysed oxidation of AA: not 15-LO
[2]
  Effect on 12-LO catalysed oxidation of AA: Activatory
[3]; 15 μM, after 24 hours of culture (FIG. 2)
  Killing of DU145 tumour cells: killing of all the tumour cell population
[3]
  Anti tumour effect on DU145 tumour cells: concentration and time related effects
[4]
  Effect on 5-LO catalysed oxidation of AA: Inhibitory
[4]; listed as 4-nitrohenicosanoic acid
  Effect on 5-LO catalysed oxidation of AA: selective inhibitors
[4]; listed as 6a
  Effect on 5-LO catalysed oxidation of AA: inhibiting 5-LO

## CCCCC/C=C\C/C=C\C/C=C\C/C=C\CCCC(CCC(=O)O)(CCC(=O)O)[N+](=O)[O-] [Lx9, 3-[(all-Z)-Nonadeca-4,7,10,13-tetraenyl]-3-nitropentane-1,5-dicarboxylic acid]
[5]
  Killing of MCF-7 tumour cells: kill these tumour cells
[1]
  Effect on 15-LO catalysed oxidation of AA: Nil
[2]
  Effect on 12-LO catalysed oxidation of AA: direct, potent and rapid inhibitor of 12-LOX; also recorded: Inhibitory
[2]; listed as 3-(all-Z)-nonadeca-4,7,10,13-tetraenyl]-3-nitropentane-1,5-dicarboxylic acid
  Effect on 12-LO catalysed oxidation of AA: selective inhibitors
[2]; listed as 8b
  Effect on 12-LO catalysed oxidation of AA: significant inhibitory effect
[4]
  Effect on 5-LO catalysed oxidation of AA: can activate 5-LOX; also recorded: Activatory

## CCCCC/C=C\C/C=C\C/C=C\C/C=C\CCCCOCC(=O)O [MP3]
[3]
  DU145 cell survival, screening test: highly active
  DU145 cell proliferation: marked inhibition of cell proliferation
[6]
  PARP cleavage: cleavage of PARP
[7]
  Activation of caspases: activation of caspases
  Induction of apoptosis in DU145 cells: induce apoptosis

## CC/C=C\C/C=C\C/C=C\CCCCCCCCOCC(=O)O [MP5, (Z,Z,Z)-(octadeca-9,12,15-trienyloxy) acetic acid]
[3]
  DU145 cell proliferation: marked inhibition of cell proliferation
[6]
  PARP cleavage: cleavage of PARP
[7]
  Activation of caspases: activation of caspases
  Induction of apoptosis in DU145 cells: induce apoptosis

## CCC=CCC=CCC=CCC=CCC=CCC=CCCCOCC(=O)O [MP6]
[3]
  DU145 cell survival, screening test: most active

## CCCCC/C=C\C/C=C\C/C=C\C/C=C\CCCCSCC(=O)O [MP8, (all-Z)-(eicosa-5,8,11,14-tetraenylthio) acetic acid]
[3]
  DU145 cell survival, screening test: highly active

## CCCCC/C=C\C/C=C\C/C=C\CCCCCSCC(=O)O [MP9]
[3]
  DU145 cell survival, screening test: most active

## CCC=CCC=CCC=CCCCCCCCCSCC(=O)O [MP10]
[3]
  DU145 cell survival, screening test: most active

## CCCCC/C=C\C/C=C\C/C=C\CCCCCSCCC(=O)O [MP12]
[3]
  DU145 cell survival, screening test: most active

## CC/C=C\C/C=C\C/C=C\CCCCCCCCSCCC(=O)O [MP13, 3-[(Z,Z,Z)-(octadeca-9,12,15-trienylthio)]propionic acid]
[3]
  DU145 cell survival, screening test: highly active

## CC/C=C\C/C=C\C/C=C\C/C=C\C/C=C\C/C=C\CCC(=O)NCC(=O)O [PTS]
[3]
  DU145 cell survival, screening test: some activity
